Test results from ChEMBL document CHEMBL3885881, “DrugMatrix”.

Species: Rattus norvegicus
Assay: DrugMatrix - Regimen: Daily Repeat
Format: toxicity, organism-based, Sprague-Dawley
Design: regimen Daily Repeat, gender Male, age 6-8 weeks
Conditions: in vivo, po, route oral GAVAGE, vehicle 100 % WATER; for ABSOLUTE BASOPHIL / ABSOLUTE EOSINOPHIL / ABSOLUTE LYMPHOCYTE / ABSOLUTE MONOCYTE / ABSOLUTE SEGMENTED NEUTROPHIL / BASOPHIL / EOSINOPHIL / ERYTHROCYTE COUNT / HEMATOCRIT / HEMOGLOBIN / LEUKOCYTE COUNT / LYMPHOCYTE / MEAN CORPUSCULAR HEMOGLOBIN / MEAN CORPUSCULAR HEMOGLOBIN CONCENTRATION / MEAN CORPUSCULAR VOLUME / MONOCYTE / NEUTROPHIL / NUCLEATED RED BLOOD CELLS / PLATELET COUNT: tissue Blood; for ALANINE AMINOTRANSFERASE / ALBUMIN / ALKALINE PHOSPHATASE / ASPARTATE AMINOTRANSFERASE / BLOOD UREA NITROGEN / CARBON DIOXIDE / CHLORIDE / CHOLESTEROL / CREATINE PHOSPHOKINASE / CREATININE / GLUCOSE / LACTATE DEHYDROGENASE / LIPASE / PHOSPHORUS / POTASSIUM / SODIUM / TOTAL BILIRUBIN / TOTAL PROTEIN / URIC ACID: tissue Plasma
[1] = 2 mg/kg, 120 h, dose level Low, time 5 day
[2] = 184 mg/kg, 72 h, dose level High, time 3 day
[3] = 184 mg/kg, 120 h, dose level High, time 5 day

C[C@]12C=CC(=O)C=C1CC[C@@H]1[C@@H]2[C@@H](O)C[C@@]2(C)[C@H]1CC[C@]2(O)C(=O)CO [PREDNISOLONE]
ABSOLUTE BASOPHIL [1]: 0 CELLS/uL | ABSOLUTE EOSINOPHIL [1]: 0 CELLS/uL | ABSOLUTE LYMPHOCYTE [1]: 11293 CELLS/uL | ABSOLUTE MONOCYTE [1]: 44.33 CELLS/uL | ABSOLUTE SEGMENTED NEUTROPHIL [1]: 929.33 CELLS/uL | BASOPHIL [1]: 0% | EOSINOPHIL [1]: 0% | ERYTHROCYTE COUNT [1]: 6.06 x10E6/uL | HEMATOCRIT [1]: 36.67% | HEMOGLOBIN [1]: 14.5 G/DL | LEUKOCYTE COUNT [1]: 12.27 x10E3/uL | LYMPHOCYTE [1]: 92.33% | MEAN CORPUSCULAR HEMOGLOBIN [1]: 23.9 pg | MEAN CORPUSCULAR HEMOGLOBIN CONCENTRATION [1]: 39.53 G/DL | MEAN CORPUSCULAR VOLUME [1]: 60.53 fL | MONOCYTE [1]: 0.33% | NEUTROPHIL [1]: 7.33% | NUCLEATED RED BLOOD CELLS [1]: 0.33 /100WBC | PLATELET COUNT [1]: 1186.33 x10E3/uL | ALANINE AMINOTRANSFERASE [1]: 41.33 u/L | ALBUMIN [1]: 4.37 G/DL | ALKALINE PHOSPHATASE [1]: 333.67 u/L | ASPARTATE AMINOTRANSFERASE [1]: 88.67 u/L | BLOOD UREA NITROGEN [1]: 16.33 mg/dL | CARBON DIOXIDE [1]: 26.67 mmol/L | CHLORIDE [1]: 101 MEQ/L | CHOLESTEROL [1]: 55.33 mg/dL | CREATINE PHOSPHOKINASE [1]: 433 u/L | CREATININE [1]: 0.17 mg/dL | GLUCOSE [1]: 143.33 mg/dL | LACTATE DEHYDROGENASE [1]: 390.33 u/L | LIPASE [1]: 9 u/L | PHOSPHORUS [1]: 10.87 mg/dL | POTASSIUM [1]: 5.88 MEQ/L | SODIUM [1]: 142.2 MEQ/L | TOTAL BILIRUBIN [1]: 0.23 mg/dL | TOTAL PROTEIN [1]: 6.1 G/DL | URIC ACID [1]: 1.87 mg/dL | ABSOLUTE BASOPHIL [2]: 0 CELLS/uL | ABSOLUTE EOSINOPHIL [2]: 0 CELLS/uL | ABSOLUTE LYMPHOCYTE [2]: 4216.33 CELLS/uL | ABSOLUTE MONOCYTE [2]: 85 CELLS/uL | ABSOLUTE SEGMENTED NEUTROPHIL [2]: 2332 CELLS/uL | BASOPHIL [2]: 0% | EOSINOPHIL [2]: 0% | ERYTHROCYTE COUNT [2]: 6.23 x10E6/uL | HEMATOCRIT [2]: 38.3% | HEMOGLOBIN [2]: 14.57 G/DL | LEUKOCYTE COUNT [2]: 6.63 x10E3/uL | LYMPHOCYTE [2]: 63.67% | MEAN CORPUSCULAR HEMOGLOBIN [2]: 23.4 pg | MEAN CORPUSCULAR HEMOGLOBIN CONCENTRATION [2]: 38.03 G/DL | MEAN CORPUSCULAR VOLUME [2]: 61.47 fL | MONOCYTE [2]: 1.33% | NEUTROPHIL [2]: 35% | NUCLEATED RED BLOOD CELLS [2]: 0 /100WBC | PLATELET COUNT [2]: 1200 x10E3/uL | ALANINE AMINOTRANSFERASE [2]: 57.33 u/L | ALBUMIN [2]: 5.07 G/DL | ALKALINE PHOSPHATASE [2]: 269.33 u/L | ASPARTATE AMINOTRANSFERASE [2]: 67 u/L | BLOOD UREA NITROGEN [2]: 18.67 mg/dL | CARBON DIOXIDE [2]: 25 mmol/L | CHLORIDE [2]: 99 MEQ/L | CHOLESTEROL [2]: 84.33 mg/dL | CREATINE PHOSPHOKINASE [2]: 258 u/L | CREATININE [2]: 0.22 mg/dL | GLUCOSE [2]: 170 mg/dL | LACTATE DEHYDROGENASE [2]: 120.33 u/L | LIPASE [2]: 12.33 u/L | PHOSPHORUS [2]: 11.57 mg/dL | POTASSIUM [2]: 5.92 MEQ/L | SODIUM [2]: 142.73 MEQ/L | TOTAL BILIRUBIN [2]: 0.17 mg/dL | TOTAL PROTEIN [2]: 7.07 G/DL | URIC ACID [2]: 2.57 mg/dL | ABSOLUTE BASOPHIL [3]: 0 CELLS/uL | ABSOLUTE EOSINOPHIL [3]: 20.33 CELLS/uL | ABSOLUTE LYMPHOCYTE [3]: 3939 CELLS/uL | ABSOLUTE MONOCYTE [3]: 40.67 CELLS/uL | ABSOLUTE SEGMENTED NEUTROPHIL [3]: 2333.33 CELLS/uL | BASOPHIL [3]: 0% | EOSINOPHIL [3]: 0.33% | ERYTHROCYTE COUNT [3]: 6.44 x10E6/uL | HEMATOCRIT [3]: 38.23% | HEMOGLOBIN [3]: 15.03 G/DL | LEUKOCYTE COUNT [3]: 6.33 x10E3/uL | LYMPHOCYTE [3]: 61.33% | MEAN CORPUSCULAR HEMOGLOBIN [3]: 23.4 pg | MEAN CORPUSCULAR HEMOGLOBIN CONCENTRATION [3]: 39.37 G/DL | MEAN CORPUSCULAR VOLUME [3]: 59.4 fL | MONOCYTE [3]: 0.67% | NEUTROPHIL [3]: 37.67% | NUCLEATED RED BLOOD CELLS [3]: 0.33 /100WBC | PLATELET COUNT [3]: 1142.33 x10E3/uL | ALANINE AMINOTRANSFERASE [3]: 78.33 u/L | ALBUMIN [3]: 5.07 G/DL | ALKALINE PHOSPHATASE [3]: 230.33 u/L | ASPARTATE AMINOTRANSFERASE [3]: 90.33 u/L | BLOOD UREA NITROGEN [3]: 18.67 mg/dL | CARBON DIOXIDE [3]: 23.33 mmol/L | CHLORIDE [3]: 100 MEQ/L | CHOLESTEROL [3]: 63.67 mg/dL | CREATINE PHOSPHOKINASE [3]: 788.33 u/L | CREATININE [3]: 0.21 mg/dL | GLUCOSE [3]: 184.67 mg/dL | LACTATE DEHYDROGENASE [3]: 177.67 u/L | LIPASE [3]: 11.67 u/L | PHOSPHORUS [3]: 10.9 mg/dL | POTASSIUM [3]: 5.41 MEQ/L | SODIUM [3]: 145.27 MEQ/L | TOTAL BILIRUBIN [3]: 0.23 mg/dL | TOTAL PROTEIN [3]: 6.93 G/DL | URIC ACID [3]: 1.27 mg/dL
